Laboratory results reported in the supplement of paper PMC10307832.

Experiments:
Experiment in all cases: relative viability (nuclei count vs DMSO), 5 days (fraction); higher = more cells survive
CUDC-101 + Navitoclax = compound: C#Cc1cccc(Nc2ncnc3cc(OC)c(OCCCCCCC(=O)NO)cc23)c1 [CUDC-101] + CC1(C)CCC(c2ccc(Cl)cc2)=C(CN2CCN(c3ccc(C(=O)NS(=O)(=O)c4ccc(N[C@H](CCN5CCOCC5)CSc5ccccc5)c(S(=O)(=O)C(F)(F)F)c4)cc3)CC2)C1 [Navitoclax] (partner 0.5 µM)
How it was run: (§1)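 A single step with final 0.05% Triton X-100, 1% formaldehyde and 1 ug/ml Hoechst fixed the cells and stained nuclei 5 days after treatment. Lung cancer cell lines in 1536-well plates had been treated by pin tool the day after seeding with one drug alone or a fixed anchor-drug dose plus five library-drug doses (not always all listed) in √10 steps, and nuclei were counted on 4× images. Relative viability is the ratio of nuclei in treated wells to nuclei in vehicle wells, taken as the median of duplicate plates.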

[1] = compound: C1=CC=C2C(=C1)N=C(S2)C(C#N)C3=NC(=NC=C3)NCCC4=CN=CC=C4 + CS(=O)(=O)N1CCN(Cc2cc3nc(-c4cccc5[nH]ncc45)nc(N4CCOCC4)c3s2)CC1 [Pictilisib] (partner 1 µM)
How it was run: as §1

NVP-TAE684 + Lapatinib = compound: COc1cc(N2CCC(N3CCN(C)CC3)CC2)ccc1Nc1ncc(Cl)c(Nc2ccccc2S(=O)(=O)C(C)C)n1 [NVP-TAE684] + CS(=O)(=O)CCNCc1ccc(-c2ccc3ncnc(Nc4ccc(OCc5cccc(F)c5)c(Cl)c4)c3c2)o1 [Lapatinib] (partner 2 µM)
How it was run: as §1

NVP-TAE684 + Phenformin = compound: COc1cc(N2CCC(N3CCN(C)CC3)CC2)ccc1Nc1ncc(Cl)c(Nc2ccccc2S(=O)(=O)C(C)C)n1 [NVP-TAE684] + N=C(N)NC(=N)NCCc1ccccc1 [Phenformin] (partner 250 µM)
How it was run: as §1

In the case of UMC-11, the relative viability (CUDC-101 + Navitoclax; first compound 0.01 µM) is reported as 0.313, the relative viability (CUDC-101 + Navitoclax; first compound 0.03162 µM) is reported as 0.302 and the relative viability (CUDC-101 + Navitoclax; first compound 0.1 µM) is reported as 0.257. It also gave a relative viability (CUDC-101 + Navitoclax; first compound 0.3162 µM) of 0.225, a relative viability (CUDC-101 + Navitoclax; first compound 1 µM) of 0.0766 and a relative viability ([1]; first compound 0.005 µM) of 0.717. It also gave a relative viability ([1]; first compound 0.01581 µM) of 0.748, a relative viability ([1]; first compound 0.05 µM) of 0.689 and a relative viability ([1]; first compound 0.1581 µM) of 0.877. For the same cell line, the relative viability ([1]; first compound 0.5 µM) was 0.777, the relative viability (NVP-TAE684 + Lapatinib; first compound 0.2 µM) was 1.03 and the relative viability (NVP-TAE684 + Lapatinib; first compound 0.6325 µM) was 0.778. The relative viability (NVP-TAE684 + Lapatinib; first compound 2 µM) was 0.683, the relative viability (NVP-TAE684 + Phenformin; first compound 0.2 µM) was 0.355 and the relative viability (NVP-TAE684 + Phenformin; first compound 0.6325 µM) was 0.32. For the same cell line, the relative viability (NVP-TAE684 + Phenformin; first compound 2 µM) was 0.268.
